Results as given in patent US12655116B2, “Substituted isophthalic acid diamides” (Bayer Aktiengesellschaft, priority 2020, dated 2026).

How the values were obtained:
POLCO = assay: Pre-emergence herbicidal action against POLCO; format: in vivo, Polygonum convolvulus; conditions: Fallopia convolvulus, 504 h, dosage 80 g/ha
Outline: (§1)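 Herbicidal effect was assessed 3 weeks after treatment by visual comparison with untreated controls, 100% denoting dead plants. Aqueous WP or EC preparations had been applied at 600 to 800 l/ha with 0.2% wetting agent to the soil covering freshly sown seeds.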

ALOMY [1] = assay: Post-emergence herbicidal action against ALOMY; format: in vivo, Alopecurus myosuroides; conditions: dosage 20 g/ha, visual assessment about 3 weeks after treatment vs untreated controls
Outline: (§2)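 Post-emergence greenhouse test; one-leaf stage, 2–3 wk post-sowing, sandy loam. Foliar spray of WP/EC in water, 600–800 l/ha, +0.2% wetting agent. Visual % action at ~3 wk vs untreated (100% = plants dead).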

ALOMY [2] = assay: Pre-emergence herbicidal action against ALOMY; format: in vivo, Alopecurus myosuroides; conditions: Alopecurus myosuroides, 504 h, pre-emergence
Outline: as §1

AMARE [3] = assay: Post-emergence herbicidal action against AMARE; format: in vivo, Amaranthus retroflexus; conditions: 20 g/ha, visual assessment about 3 weeks after treatment, 100% = plants have died, 0% = like control plants
Outline: as §2

VIOTR [4] = assay: Post-emergence herbicidal action against VIOTR; format: in vivo, Viola tricolor
Outline: as §2

PHBPU [5] = assay: Post-emergence herbicidal action against PHBPU; format: in vivo, Pharbitis purpurea
Outline: as §2

STEME [6] = assay: Pre-emergence herbicidal action against STEME; format: in vivo, Stellaria media
Outline: as §1

AVEFA [7] = assay: Pre-emergence herbicidal action against AVEFA; format: in vivo, Avena fatua; conditions: 80 g/ha, pre-emergence
Outline: as §1

SETVI [8] = assay: Post-emergence herbicidal action against SETVI; format: in vivo, Setaria viridis
Outline: as §2

DIGSA [9] = assay: Post-emergence herbicidal action against DIGSA; format: in vivo, Digitaria sanguinalis
Outline: as §2

ECHCG [10] = assay: Pre-emergence herbicidal action against ECHCG; format: in vivo, Echinochloa crus-galli
Outline: as §1

VIOTR [11] = assay: Pre-emergence herbicidal action against VIOTR; format: in vivo, Viola tricolor
Outline: as §1

SETVI [12] = assay: Pre-emergence herbicidal action against SETVI; format: in vivo, Setaria viridis
Outline: as §1

MATIN [13] = assay: Post-emergence herbicidal action against MATIN; format: in vivo, Matricaria inodora; conditions: Tripleurospermum inodorum, 504 h, dosage 20 g/ha
Outline: as §2

ABUTH [14] = assay: Pre-emergence herbicidal action against ABUTH; format: in vivo, Abutilon theophrasti
Outline: as §1

AMARE [15] = assay: Pre-emergence herbicidal action against AMARE; format: in vivo, Amaranthus retroflexus
Outline: as §1

AVEFA [16] = assay: Post-emergence herbicidal action against AVEFA; format: in vivo, Avena fatua; conditions: Avena fatua, 504 h, visual assessment about 3 weeks after treatment, 100% = plants have died, 0% = like control plants
Outline: as §2

HORMU [17] = assay: Pre-emergence herbicidal action against HORMU; format: in vivo, Hordeum murinum; conditions: Hordeum murinum, 504 h; 80 g/ha, pre-emergence
Outline: as §1

LOLRI = assay: Pre-emergence herbicidal action against LOLRI; format: in vivo, Lolium rigidum; conditions: Lolium rigidum, 504 h, 80 g/ha
Outline: as §1

DIGSA [18] = assay: Pre-emergence herbicidal action against DIGSA; format: in vivo, Digitaria sanguinalis
Outline: as §1

ABUTH [19] = assay: Post-emergence herbicidal action against ABUTH; format: in vivo, Abutilon theophrasti; conditions: visual assessment about 3 weeks after treatment vs untreated controls
Outline: as §2

VERPE = assay: Post-emergence herbicidal action against VERPE; format: in vivo, Veronica persica; conditions: 20 g/ha
Outline: as §2

ECHCG [20] = assay: Post-emergence herbicidal action against ECHCG; format: in vivo, Echinochloa crus-galli
Outline: as §2

MATIN [21] = assay: Pre-emergence herbicidal action against MATIN; format: in vivo, Matricaria inodora
Outline: as §1

STEME [22] = assay: Post-emergence herbicidal action against STEME; format: in vivo, Stellaria media
Outline: as §2

PHBPU [23] = assay: Pre-emergence herbicidal action against PHBPU; format: in vivo, Pharbitis purpurea; conditions: dosage 80 g/ha
Outline: as §1

HORMU [24] = assay: Post-emergence herbicidal action against HORMU; format: in vivo, Hordeum murinum; conditions: dosage 20 g/ha
Protocol: Seeds of monocotyledonous and dicotyledonous weed and crop plants are laid out in sandy loam soil in wood-fiber pots, covered with soil and cultivated in a greenhouse under good growth conditions. 2 to 3 weeks after sowing, the test plants are treated at the one-leaf stage. The compounds of the invention, formulated in the form of wettable powders (WP) or as emulsion concentrates (EC), are then sprayed onto the green parts of the plants in the form of an aqueous suspension or emulsion at a water application rate equivalent to 600 to 800 l/ha, with addition of 0.2% wetting agent. After the test plants have been left to stand in the greenhouse under optimal growth conditions for about 3 weeks, the action of the preparations is assessed visually in comparison to untreated controls (herbicidal action in percent (%): 100% activity=the plants have died, 0% activity=like control plants). […] The tables below illustrate, in an illustrative manner, the post-emergence herbicidal action of the compounds of the invention, the herbicidal activity being stated in percent.

[25] = 80 g/ha, scored visually after 3 weeks vs untreated controls (100% = plants have died, 0% = like control plants)
[26] = Setaria viridis, 504 h, dosage 20 g/ha

With `CCNC(=O)c1c(C(F)(F)F)ccc(C(=O)Nc2nnnn2CC)c1Br` [Example 2-208] the pest or weed control at 80 g/ha (POLCO) was 90%, the pest or weed control at 20 g/ha (ALOMY [1]; Alopecurus myosuroides, 504 h) was 80% and the pest or weed control at 80 g/ha (ALOMY [2]; [25]) was 90%. For the same molecule, the pest or weed control at 20 g/ha (ALOMY [2]; 20 g/ha, scored visually after 3 weeks, 100% = plants have died, 0% = like control plants) was 80%, the pest or weed control at 20 g/ha (AMARE [3]; Amaranthus retroflexus, 504 h) was 100% and the pest or weed control at 5 g/ha (VIOTR [4]; Viola tricolor, 504 h, 5 g/ha) was 100%. The pest or weed control at 20 g/ha (VIOTR [4]; Viola tricolor, 504 h, 20 g/ha) was 100%, the pest or weed control at 5 g/ha (PHBPU [5]; Ipomoea purpurea, 504 h, dosage 5 g/ha) was 80% and the pest or weed control at 20 g/ha (PHBPU [5]; Ipomoea purpurea, 504 h, dosage 20 g/ha) was 80%. It also gave a pest or weed control at 20 g/ha (STEME [6]; Stellaria media, 504 h, dosage 20 g/ha) of 100%, a pest or weed control at 80 g/ha (STEME [6]; Stellaria media, 504 h, dosage 80 g/ha) of 100% and a pest or weed control at 80 g/ha (AVEFA [7]; Avena fatua, 504 h) of 100%. It also gave a pest or weed control at 5 g/ha (SETVI [8]; Setaria viridis, 504 h, dosage 5 g/ha) of 80%, a pest or weed control at 20 g/ha (SETVI [8]; [26]) of 80% and a pest or weed control at 5 g/ha (DIGSA [9]; Digitaria sanguinalis, 504 h, 5 g/ha) of 80%. It also gave a pest or weed control at 20 g/ha (DIGSA [9]; Digitaria sanguinalis, 504 h, 20 g/ha) of 90%, a pest or weed control at 80 g/ha (ECHCG [10]; Echinochloa crus-galli, 504 h, 80 g/ha) of 100% and a pest or weed control at 20 g/ha (VIOTR [11]; Viola tricolor, 504 h, dosage 20 g/ha) of 100%. The pest or weed control at 80 g/ha (VIOTR [11]; Viola tricolor, 504 h, dosage 80 g/ha) was 100%, the pest or weed control at 20 g/ha (SETVI [12]; [26]) was 80% and the pest or weed control at 80 g/ha (SETVI [12]; Setaria viridis, 504 h, dosage 80 g/ha) was 100%. For the same molecule, the pest or weed control at 20 g/ha (MATIN [13]) was 80%, the pest or weed control at 80 g/ha (ABUTH [14]; Abutilon theophrasti, 504 h, 80 g/ha, scored visually after 3 weeks vs untreated controls (100% = plants have died, 0% = like control plants)) was 100% and the pest or weed control at 20 g/ha (ABUTH [14]; Abutilon theophrasti, 504 h, dosage 20 g/ha, scored visually after 3 weeks vs untreated controls, 100% = plants have died, 0% = like control plants, read-out: Pre-emergence action against ABUTH (herbicidal activity in percent)) was 100%. The pest or weed control at 20 g/ha (AMARE [15]; Amaranthus retroflexus, 504 h, 20 g/ha, scored visually after 3 weeks vs untreated controls, 100% = plants have died, 0% = like control plants) was 100%, the pest or weed control at 80 g/ha (AMARE [15]; Amaranthus retroflexus, 504 h, 80 g/ha, scored visually after 3 weeks vs untreated controls, 100% = plants have died, 0% = like control plants) was 100% and the pest or weed control at 5 g/ha (AVEFA [16]; 5 g/ha) was 80%. The pest or weed control at 20 g/ha (AVEFA [16]; 20 g/ha) was 90%, the pest or weed control at 80 g/ha (HORMU [17]) was 90% and the pest or weed control at 80 g/ha (LOLRI) was 80%. It also gave a pest or weed control at 20 g/ha (DIGSA [18]; Digitaria sanguinalis, 504 h, dosage 20 g/ha) of 90%, a pest or weed control at 80 g/ha (DIGSA [18]; Digitaria sanguinalis, 504 h, dosage 80 g/ha) of 100% and a pest or weed control at 5 g/ha (ABUTH [19]; Abutilon theophrasti, 504 h, dosage 5 g/ha) of 90%. It also gave a pest or weed control at 20 g/ha (ABUTH [19]; Abutilon theophrasti, 504 h, dosage 20 g/ha) of 90%, a pest or weed control at 20 g/ha (VERPE; Veronica persica, 504 h) of 80% and a pest or weed control at 20 g/ha (ECHCG [20]; Echinochloa crus-galli, 504 h, dosage 20 g/ha) of 80%. For the same molecule, the pest or weed control at 20 g/ha (MATIN [21]; Tripleurospermum inodorum, 504 h, dosage 20 g/ha) was 100%, the pest or weed control at 80 g/ha (MATIN [21]; Tripleurospermum inodorum, 504 h, dosage 80 g/ha) was 100% and the pest or weed control at 20 g/ha (STEME [22]; Stellaria media, 504 h, 20 g/ha) was 100%. It also gave a pest or weed control at 5 g/ha (STEME [22]; Stellaria media, 504 h, dosage 5 g/ha) of 80%.
`CCNC(=O)c1c(C(F)(F)F)ccc(C(=O)Nc2nnco2)c1SC` [Example 5-59] was tested, and the “Post-emergence action against ALOMY in %” value (ALOMY [1]) was 80%, the “Post-emergence action at 20 g/ha against AMARE in %” value (AMARE [3]) was 90% and the “Post-emergence action against VIOTR in %” value (VIOTR [4]; 20 g/ha) was 80%. The “Post-emergence action against PHBPU in %” value (PHBPU [5]; dosage 5 g/ha) was 80%, the “Post-emergence action against PHBPU in %” value (PHBPU [5]; dosage 20 g/ha) was 90% and the “Pre-emergence action against STEME in %” value (STEME [6]; dosage 20 g/ha) was 90%. For the same molecule, the “Pre-emergence action against STEME in %” value (STEME [6]; dosage 80 g/ha) was 100%, the “Pre-emergence action against AVEFA in %” value (AVEFA [7]) was 80% and the “Post-emergence action against SETVI in %” value (SETVI [8]; dosage 20 g/ha) was 90%. The “Post-emergence action against DIGSA in %” value (DIGSA [9]; 5 g/ha) was 90%, the “Post-emergence action against DIGSA” value (DIGSA [9]; 20 g/ha) was 90% and the “Pre-emergence action against ECHCG in %” value (ECHCG [10]; 20 g/ha) was 80%. The “Pre-emergence action against ECHCG in %” value (ECHCG [10]; 80 g/ha) was 100%, the “Pre-emergence action against VIOTR in %” value (VIOTR [11]; dosage 20 g/ha) was 100% and the “Pre-emergence action against VIOTR in %” value (VIOTR [11]; dosage 80 g/ha) was 100%. The “Pre-emergence action against SETVI in %” value (SETVI [12]; dosage 80 g/ha) was 100%, the “Pre-emergence action against ABUTH (herbicidal activity)” value (ABUTH [14]; [25]) was 100% and the “Pre-emergence action against ABUTH (herbicidal activity in percent)” value (ABUTH [14]; dosage 20 g/ha, scored visually after 3 weeks vs untreated controls, 100% = plants have died, 0% = like control plants) was 100%. The “Pre-emergence action against AMARE in %” value (AMARE [15]; 20 g/ha, scored visually after 3 weeks vs untreated controls, 100% = plants have died, 0% = like control plants) was 100%, the “Pre-emergence action against AMARE in %” value (AMARE [15]; [25]) was 100% and the “Pre-emergence action against DIGSA in %” value (DIGSA [18]; dosage 20 g/ha) was 100%. For the same molecule, the “Pre-emergence action against DIGSA in %” value (DIGSA [18]; dosage 80 g/ha) was 100%, the “Pre-emergence action against PHBPU in %” value (PHBPU [23]) was 80% and the “Post-emergence action against ABUTH in %” value (ABUTH [19]; dosage 5 g/ha) was 90%. For the same molecule, the “Post-emergence action against ABUTH in %” value (ABUTH [19]; dosage 20 g/ha) was 90%, the “Post-emergence action against VERPE in %” value (VERPE) was 80% and the “Post-emergence action against ECHCG in %” value (ECHCG [20]; dosage 5 g/ha) was 80%. The “Post-emergence action against ECHCG in %” value (ECHCG [20]; dosage 20 g/ha) was 90%, the “Pre-emergence action against MATIN in %” value (MATIN [21]; dosage 20 g/ha) was 80% and the “Pre-emergence action against MATIN in %” value (MATIN [21]; dosage 80 g/ha) was 90%. The “Post-emergence action against STEME in %” value (STEME [22]; 20 g/ha) was 100%, the “Post-emergence action against STEME in %” value (STEME [22]; dosage 5 g/ha) was 90% and the “Post-emergence action against HORMU in %” value (HORMU [24]) was 80%.
